In this assay the target is T1, Gal4/hFXR fusion protein (Homo sapiens, UniProt Q96RI1).
T1 sequence (Q96RI1 262-486 limits assumed): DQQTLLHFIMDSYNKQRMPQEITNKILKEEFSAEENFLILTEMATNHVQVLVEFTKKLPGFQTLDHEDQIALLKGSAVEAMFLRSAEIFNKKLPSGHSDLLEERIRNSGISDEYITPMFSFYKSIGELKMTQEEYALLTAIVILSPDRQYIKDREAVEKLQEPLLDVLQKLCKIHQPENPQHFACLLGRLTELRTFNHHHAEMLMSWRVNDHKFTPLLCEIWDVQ
The experiment in a line: Gal4/hFXR fusion protein agonist activity in human 293 cells (luciferase). More on the design: Potency Range; other: Gal4/FXR agonist potency in 293 cells. As to conditions: Gal4/FXR agonist potency in 293 cells; table does not say whether hFXR or mFXR; read-out: Potency Range. It counts as cell-based. Here is the method: • Assay Medium: Phenol red free high glucose Dulbecco's modified Eagle's medium with sodium pyruvate (Cellgro, #17-205-CV) supplemented with 10% fetal bovine serum (Gibco, 16000-044), 1% glutamax (Gibco, 35050-061), 100 units/mL penicillin and 100 μg/mL streptomycin (Gibco, 15140-122). • Culturplate-96 (PerkinElmer, 6005688) • Lysis buffer (Promega, E3971) • Luciferase assay reagent (Promega E1483)
• 1. Compounds to be tested were prepared as 2× stocks in assay medium. • 2. […] The supernatant was removed and the cells were resuspended in 1 ml assay medium. The cells were counted and diluted in assay medium to 200,000 cells per ml. The cells were then plated at 10,000 cells per well in Culturplate-96 plates in 50 uL assay medium. The cells were incubated at 37° C. for approximately 1 hour. • 3. […] All assays included 1 uM GW4064 (Maloney et al., J. Med. Chem., 2000, 43(16), 2971-2974) as a reference standard. • 4. Cells were incubated for 24 hours at 37° C.
• 5. The medium was removed, and the cells were lysed in 25 uL lysis buffer (Promega, E3971). • 6. The plates were analyzed for luciferase activity with luciferase assay reagent (Promega E1483). Plates were read on Victor^3V instrument using the protocol “Shuguang Luciferase assay” (dispense volume=100 uL, plate type=“Packard Viewplate”, measurement height=8 mm from bottom of plate, 5 second read per well).
• 1. For agonist single point screening, data were analyzed in Excel. Each compound was tested in triplicate. • 2. For agonist potency determinations, statistical analysis of the data was performed using a customized Excel/SAS program. Dose response curves were generated using a four parameter (min, max, slope, and EC50 where EC50 is defined as the concentration which corresponds to midway between the estimated max and min) logistic model using log-transformed data (data was transformed on both sides with known lambda=0). • 3.

Counter-ions that a name gives are not always drawn.

For `CC(C)OC(=O)C1=CN(C(=O)c2cccc(CN3C[C@@H](C)C[C@H](C)C3)c2)CC(C)(C)c2c1[nH]c1ccccc21` [Example 13, Isopropyl 3-(3-{[(3S,5S)-3,5-dimethylpiperidin-1-yl]methyl}benzoyl)-1,1-dimethyl-1,2,3,6-tetrahydroazepino[4,5-b]indole-5-carboxylate], the EC50 was in the range of 0.1 to 0.5 µM.

For the molecule `CC(C)OC(=O)C1=CN(C(=O)c2cccc(CN3CCC(N4CCCC4)CC3)c2)CC(C)(C)c2c1[nH]c1ccccc21` [Example 12, Isopropyl 1,1-dimethyl-3-{3-[(4-pyrrolidin-1-ylpiperidin-1-yl)methyl]benzoyl}-1,2,3,6-tetrahydroazepino[4,5-b]indole-5-carboxylate], the EC50 was 1 to 10 µM.

With `CC(C)OC(=O)C1=CN(C(=O)c2cccc(CN3C[C@@H](C)O[C@@H](C)C3)c2)CC(C)(C)c2c1[nH]c1ccccc21` [Example 6, Isopropyl 3-(3-{[(2R,6S)-2,6-dimethylmorpholin-4-yl]methyl}benzoyl)-1,1-dimethyl-1,2,3,6-tetrahydroazepino[4,5-b]indole-5-carboxylate], the EC50 was 0.5 to 1 µM.

`CC(C)OC(=O)C1=CN(C(=O)c2cccc(CN3CCC(N4CCOCC4)CC3)c2)CC(C)(C)c2c1[nH]c1ccccc21` [Example 9, Isopropyl 1,1-dimethyl-3-{3-[(4-morpholin-4-ylpiperidin-1-yl)methyl]benzoyl}-1,2,3,6-tetrahydroazepino[4,5-b]indole-5-carboxylate]: the EC50 lay in the range of 1 to 10 µM.

`CC(C)OC(=O)C1=CN(C(=O)c2cccc(CN3CCCC(C(N)=O)C3)c2)CC(C)(C)c2c1[nH]c1ccccc21` (stereo not drawn) [Example 20, isopropyl 3-{3-[(3-carbamoylpiperidin-1-yl)methyl]benzoyl}-1,1-dimethyl-1,2,3,6-tetrahydroazepino[4,5-b]indole-5-carboxylate]: the EC50 lay within 0.5 to 1 µM.

Consider `CC(C)OC(=O)C1=CN(C(=O)c2cccc(CNC3CCNCC3)c2)CC(C)(C)c2c1[nH]c1ccccc21` [Example 22, Isopropyl 1,1-dimethyl-3-{3-[(piperidin-4-ylamino)methyl]benzoyl}-1,2,3,6-tetrahydroazepino[4,5-b]indole-5-carboxylate dihydrochloride], for which the EC50 was 1 to 10 µM.

For the molecule `CC(C)OC(=O)C1=CN(C(=O)c2cccc(CN3CCSC3)c2)CC(C)(C)c2c1[nH]c1ccccc21` [Example 10, Isopropyl 1,1-dimethyl-3-[3-(1,3-thiazolidin-3-ylmethyl)benzoyl]-1,2,3,6-tetrahydroazepino[4,5-b]indole-5-carboxylate], the EC50 fell in the range of 0.1 to 0.5 µM.

On to `CC(C)OC(=O)C1=CN(C(=O)c2cccc(CN(C)C3CCCCC3)c2)CC(C)(C)c2c1[nH]c1ccccc21` [Example 18, Isopropyl 3-(3-{[cyclohexyl(methyl)amino]methyl}benzoyl)-1,1-dimethyl-1,2,3,6-tetrahydroazepino[4,5-b]indole-5-carboxylate], for which the EC50 is 0.5 to 1 µM.

As to `CC(C)OC(=O)C1=CN(C(=O)c2cccc(CN3CCS(=O)(=O)CC3)c2)CC(C)(C)c2c1[nH]c1ccccc21` [Example 21, Isopropyl 3-{3-[(1,1-dioxidothiomorpholin-4-yl)methyl]benzoyl}-1,1-dimethyl-1,2,3,6-tetrahydroazepino[4,5-b]indole-5-carboxylate], the EC50 was in the range of 0.5 to 1 µM.

As to `CC(C)OC(=O)C1=CN(C(=O)c2cccc(CN3CCC(N4CCCCC4)CC3)c2)CC(C)(C)c2c1[nH]c1ccccc21` [Example 11, Isopropyl 3-[3-(1,4′-bipiperidin-1′-ylmethyl)benzoyl]-1,1-dimethyl-1,2,3,6-tetrahydroazepino[4,5-b]indole-5-carboxylate], the EC50 lay in the range of 1 to 10 µM.

Consider `CC(C)OC(=O)C1=CN(C(=O)c2cccc(CN3CCC(O)CC3)c2)CC(C)(C)c2c1[nH]c1ccccc21` [Example 19, Isopropyl 3-{3-[(4-hydroxypiperidin-1-yl)methyl]benzoyl}-1,1-dimethyl-1,2,3,6-tetrahydroazepino[4,5-b]indole-5-carboxylate], for which the EC50 fell in the range of 0.5 to 1 µM.

On to `CC(C)OC(=O)C1=CN(C(=O)c2cccc(CN3C[C@H](C)C[C@H](C)C3)c2)CC(C)(C)c2c1[nH]c1ccccc21` [Example 14, Isopropyl 3-(3-{[(R3R,5S)-3,5-dimethylpiperidin-1-yl]methyl}benzoyl)-1,1-dimethyl-1,2,3,6-tetrahydroazepino[4,5-b]indole-5-carboxylate], for which the EC50 fell in the range of 1 to 10 µM.

As for `CC(C)OC(=O)C1=CN(C(=O)c2cccc(CN3C[C@@H](C)O[C@H](C)C3)c2)CC(C)(C)c2c1[nH]c1ccccc21` [Example 5, Isopropyl 3-(3-{[(2R,6R)-2,6-dimethylmorpholin-4-yl]methyl}benzoyl)-1,1-dimethyl-1,2,3,6-tetrahydroazepino[4,5-b]indole-5-carboxylate], the EC50 lay in the range of 0.1 to 0.5 µM.

For `CC(C)OC(=O)C1=CN(C(=O)c2cccc(CN3C[C@@H](C)N[C@@H](C)C3)c2)CC(C)(C)c2c1[nH]c1ccccc21` [Example 7, Isopropyl 3-(3-{[(3R,5S)-3,5-dimethylpiperazin-1-yl]methyl}benzoyl)-1,1-dimethyl-1,2,3,6-tetrahydroazepino[4,5-b]indole-5-carboxylate], the EC50 was in the range of 0.5 to 1 µM.

As for `CC(C)OC(=O)C1=CN(C(=O)c2cccc(CNC3CCCCC3)c2)CC(C)(C)c2c1[nH]c1ccccc21` [Example 17, Isopropyl 3-{3-[(cyclohexylamino)methyl]benzoyl}-1,1-dimethyl-1,2,3,6-tetrahydroazepino[4,5-b]indole-5-carboxylate], the EC50 lay in the range of 0.5 to 1 µM.

With `CC(C)OC(=O)C1=CN(C(=O)c2cccc(CN3CCSCC3)c2)CC(C)(C)c2c1[nH]c1ccccc21` [Example 15, Isopropyl 1,1-dimethyl-3-[3-(thiomorpholin-4-ylmethyl)benzoyl]-1,2,3,6-tetrahydroazepino[4,5-b]indole-5-carboxylate], the EC50 is 0.1 to 0.5 µM.

For the molecule `CC(C)OC(=O)C1=CN(C(=O)c2cccc(CN3[C@@H](C)CC[C@@H]3C)c2)CC(C)(C)c2c1[nH]c1ccccc21` [Example 16, Isopropyl 3-(3-{[(2S,5S)-2,5-dimethylpyrrolidin-1-yl]methyl}benzoyl)-1,1-dimethyl-1,2,3,6-tetrahydroazepino[4,5-b]indole-5-carboxylate], the EC50 fell in the range of 1 to 10 µM.

Turning to `CC(C)OC(=O)C1=CN(C(=O)c2cccc(CN3CCC(C(N)=O)CC3)c2)CC(C)(C)c2c1[nH]c1ccccc21` [Example 8, Isopropyl 3-{3-[(4-carbamoylpiperidin-1-yl)methyl]benzoyl}-1,1-dimethyl-1,2,3,6-tetrahydroazepino[4,5-b]indole-5-carboxylate], the EC50 was in the range of 0.5 to 1 µM.

Source of the values: patent US20110039824A1, “1,2,3,6-tetrahydroazepino[4,5-b]indole-5-carboxylate nuclear receptor inhibitors” (Wyeth, priority 2008, published 2011).
